Values quoted from earlier work as cited in patent US9808446B2, “Method for decreasing symptoms of alcohol consumption” (Alcobra Ltd., priority 2007, dated 2017).

Tests used:
[1] = long term data
frontoparietal cortex = details: guinea pigs, brain
[2] = not given; remark: listed apart in the source

- mean half life in human serum ([2]; Lu Yuan et al.): about 0.8 hour
- bioavailability ([2]; oral): 60-80%
- oral absorption ([2]; oral): fast
- half life in human serum ([2]; oral and intravenous, without appreciable differences): 40 to 60 min
SMILES: Cc1ncc(CO)c(CO)c1O.O=C1CC[C@@H](C(=O)O)N1 [Metadoxine, pyridoxol L,2-pyrrolidon-5 carboxylate]
- safety for use by humans [1]: safe
- level of GABA and acetylcholine in the frontoparietal cortex (frontoparietal cortex): increased
- glutathione depletion in hepatic tissues (animal studies): prevented
- oxidative stress in hepatic tissues (animal studies): reduced
- increased production of fatty acid esters in the liver (during chronic alcohol intake): inhibited
